Data published in patent publication US20130122024A1, “NEW BINDER-DRUG CONJUGATES (ADCS) AND USE THEREOF” (Bayer Intellectual Property GmbH, priority 2011, published 2013).

Experiments:
[1] = tested on: tubulin; assay: Fluorescence-based microtubule (tubulin) polymerization assay; type: biochemical
Procedure: Tubulin polymerization was investigated using the “Fluorescence-based Microtubule Polymerisation Assay Kit” from Cytoskeleton (Denver, Colo., USA; order number: BK011). With this assay, GTP is added to unpolymerized tubulin, allowing polymerization to take place spontaneously. The assay is based on the binding of the fluorophore 4′,6-di-amidino-2-phenylindole (DAPI) to tubulin. Free and bound DAPI can be differentiated on the basis of different emission spectra.
[…] In addition to the buffer control, paclitaxel, with a polymerization-increasing effect, and vinblastin, with a polymerization inhibiting effect, were run additionally as assay controls. Measurement was carried out using 96-well plates with a half base area. The kinetics of the tubulin polymerization were monitored in a Fluorimeter at 37° C. for 1 hour. The excitation wavelength was 355 nm, and emission was monitored at 460 nm. For the region of linear increase within the first 10 minutes, a calculation was made of the change in fluorescence per minute (ΔF/min), which represents the polymerization rate of the microtubuli. The potency of the test substances was quantified on the basis of their respective reduction of the polymerization rate.
The reduction in the tubulin polymerization rate occurs in dependence on the concentration of the test substance added.

[2] = tested on: Caco-2 cells; assay: Caco-2 flux assay for cell permeability; type: in vitro ADME; conditions: 2 hours, B to A
Procedure: The cell permeability of a substance can be investigated by means of in vitro testing in a flux assay using Caco-2 cells [M. D. Troutman and D. R. Thakker, Pharm. Res. 20 (8), 1210-1224 (2003)]. For this purpose, the cells were cultured for 15-16 days on 24-well filter plates. For the determination of permeation, the respective working example was applied in a HEPES buffer to the cells either apically (A) or basally (B) and incubated for 2 hours. After 0 hours and after 2 hours, samples were taken from the cis and trans compartments. The samples were separated by HPLC (Agilent 1200, Böblingen, Germany) using reverse phase columns. The HPLC system was coupled via a Turbo Ion Spray Interface to a Triple Quadropol mass spectrometer API 4000 (Applied Biosystems Applera, Darmstadt, Germany). The permeability was evaluated on the basis of a Papp value, which was calculated using the formula published by Schwab et al. [D. Schwab et al., J. Med. Chem. 46, 1716-1725 (2003)].

[3] = Pharmacokinetics in the HT29 tumour model, non-transfected tumours; type: in vivo; conditions: after i.v. 16 mg/kg of Example 5; animals with nontransfected tumours
Procedure: Following intravenous administration of 16 mg/kg of Example 5, the plasma concentrations and tumour concentrations of Example 5 and also of potential metabolites such as, for example, of Example 64 were measured. […] In contrast, the AUC in the tumour in the nontransfected animals was about 8 times lower than in the transfected animals.
The measurement of the compound from Example 64 in plasma and tumour took place following precipitation of the proteins with methanol, by means of high-pressure liquid chromatography (HPLC) coupled to a tandem mass spectrometer (MS).
For the processing of 100 μL of plasma, it was admixed with 400 μL of methanol and 10 μL of internal standard (ISTD, 50 ng/mL in methanol) and shaken for 10 seconds. After centrifuging for 5 minutes at 16 000 g, 250 μL of supernatant were transferred to an autosampler vial, which was made up with 250 μL of ammonium acetate buffer (AAC, 10 mM, pH 6.8) and shaken again.
For the processing of a tumour, it was admixed with 4 times the amount of methanol. […] After again being shaken, the tumour sample was ready for measurement.
The measurement of both matrix samples took place, lastly, on the HPLC-coupled, atmospheric pressure ionization/tandem mass spectrometer by means of a Turbo Ion Spray Interface (TISP) on an API4000 instrument from SCIEX. The m/z transitions measured were as follows: […]

With CC[C@H](C)[C@@H]([C@@H](CC(=O)N1CCC[C@H]1[C@H](OC)[C@@H](C)C(=O)N[C@@]1(C(=O)N2CCCCO2)C[C@@H]1c1ccccc1)OC)N(C)C(=O)[C@@H](NC(=O)[C@H](C(C)C)N(C)CCCC(=O)NNC(=O)CCCCCN1C(=O)CC(SC[C@H](N)C(=O)O)C1=O)C(C)C (stereo partly drawn) [Example 64, N-(4-{2-[6-(3-{[(2R)-2-Amino-2-carboxyethyl]sulphanyl}-2,5-dioxopyrrolidin-1-yl)hexanoyl]hydrazino}-4-oxobutyl)-N-methyl-L-valyl-N-[(3R,4S,5S)-3-methoxy-1-{(2S)-2-[(1R,2R)-1-methoxy-2-methyl-3-{[(1S,2R)-1-(1,2-oxazinan-2-ylcarbonyl)-2-phenylcyclopropyl]amino}-3-oxopropyl]pyrrolidin-1-yl}-5-methyl-1-oxoheptan-4-yl]-N-methyl-L-valinamide] the “reduction in the polymerization rate” value ([1]; 1 μM) was 41%, the “Tubulin polymerization in the presence of toxophore in [%]. Tubulin polymerization rate at 1 μM MMAF set at 100%” value ([1]; concentration of toxophore 1 μM) was 120% and the “Papp (B-A)” value [2] was 0.25 ×10⁻⁶ cm/s. The exposure in plasma [3] was “identical to the exposure in plasma in animals with transfected tumours”.
